Values of other authors as cited in PubChem BioAssay AID1259409 (Chemical Carcinogenesis Research Information System (CCRIS), 2018).

System: rodent chemically induced tumor inhibition, incidence and multiplicity
Assay: CCRIS tumor inhibitor studies
Details: Carcinogen: DIETHYLNITROSAMINE, 55-18-5, N-METHYL-N-NITROSOUREA, 684-93-5, N-BUTYL-N-(4-HYDROXYBUTYL)NITROSAMINE, 3817-11-6, DIMETHY, Carcinogen: DIETHYLNITROSAMINE, 55-18-5, N-METHYL-N-NITROSOUREA, 684-93-5, N-BUTYL-N-(4-HYDROXYBUTYL)NITROSAMINE, 3817-11-6, DIMETHY, Dose [Inhibitor]: 0, Route [Inhibitor]: ORAL, Species: RAT, Strain/Sex: F344/MALE, Dose [Carcinogen]: 100 MG/KG BW DEN ONCE FOLLOWED BY 20 MG/KG BW MNU 4 TIMES AND 0.05% BBN IN DRINKING WATER DURING FIRST 2 WK THEN 40 MG/K, Promoter: NONE USED

Question: Which “tumour outcome (control, treated, inhibition, significance)” value (1% IN THE DIET FOR 24 WK BEGINNING 1 DAY POST CARCINOGEN TREATMENT (STUDY DURATION: 28 WK), Target Tissue: Type of Lesion: URINARY BLADDER: PAPILLOMA) does the source give for CCOC1=C(O)C(=O)O[C@@H]1[C@@H](O)CO here?
Answer: 7%, 7%, 0%, not significant

Question: What about the “tumour outcome (control, treated, inhibition, significance)” value (1% IN THE DIET FOR 30 D BEGINNING 1 DAY PRIOR TO CARCINOGEN TREATMENT (STUDY DURATION: 28 WK), Target Tissue: Type of Lesion: LARGE INTESTINE: ADENOMA) of the same compound?
Answer: 27%, 33%, -22%, not significant

Question: And the “tumour outcome (control, treated, inhibition, significance)” value (1% IN THE DIET FOR 30 D BEGINNING 1 DAY PRIOR TO CARCINOGEN TREATMENT (STUDY DURATION: 28 WK), Target Tissue: Type of Lesion: LARGE INTESTINE: CARCINOMA)?
Answer: 7%, 40%, -471%, not significant

Question: What about the “tumour outcome (control, treated, inhibition, significance)” value (1% IN THE DIET FOR 30 D BEGINNING 1 DAY PRIOR TO CARCINOGEN TREATMENT (STUDY DURATION: 28 WK), Target Tissue: Type of Lesion: SMALL INTESTINE: ADENOMA) of the same compound?
Answer: 33%, 7%, 79%, not significant

Question: And the “tumour outcome (control, treated, inhibition, significance)” value (1% IN THE DIET FOR 30 D BEGINNING 1 DAY PRIOR TO CARCINOGEN TREATMENT (STUDY DURATION: 28 WK), Target Tissue: Type of Lesion: SMALL INTESTINE: CARCINOMA)?
Answer: 7%, 7%, 0%, not significant

Question: And the “tumour outcome (control, treated, inhibition, significance)” value (1% IN THE DIET FOR 30 D BEGINNING 1 DAY PRIOR TO CARCINOGEN TREATMENT (STUDY DURATION: 28 WK), Target Tissue: Type of Lesion: THYROID: CARCINOMA)?
Answer: 7%, 0%, 100%, not significant

Question: And the “tumour outcome (control, treated, inhibition, significance)” value (1% IN THE DIET FOR 30 DAYS BEGINNING 1 DAY PRIOR TO CARCINOGEN TREATMENT (STUDY DURATION: 28 WK), Target Tissue: Type of Lesion: URINARY BLADDER: CARCINOMA)?
Answer: 7%, 7%, 0%, not significant

Question: What about the “tumour outcome (control, treated, inhibition, significance)” value (1% IN THE DRINKING WATER FOR 24 WK BEGINNING 1 DAY POST CARCINOGEN TREATMENT (STUDY DURATION: 28 WK), Target Tissue: Type of Lesion: SMALL INTESTINE: CARCINOMA) of the same compound?
Answer: 7%, 0%, 100%, not significant
